Test results: PMC9494746 (Biochemistry, 2022)
Where two headings read alike, the source gives them in different places. Blank lines part the entries; values can stand above or below the compound they belong to.

Columns and labels:
[1] = target: T1, SET/WRAD2 complex (Homo sapiens, UniProt O14686); assay: Product and dead-end inhibitor studies, MTase-Glo; type: biochemical; design: key to inhibition pattern: C = competitive; NC = noncompetitive; UC = uncompetitive
T1 construct: expressing amino acids 5308-5537 of the hKMT2D catalytic SET domain; 6xHis + TEV site (N, cleaved yes); made in house; host or cells: KMT2D Win-SET: Sf21 (baculovirus); H3 peptides bought from Chinese Peptide Company
Procedure: (§1) SET domain activity was monitored with a quantitative endpoint assay determining AdoHcy production using MTase-Glo by Promega.[39] Assays were performed as time courses at room temperature with buffer constituents, 50 mM Tris, pH 7.5, 50 mM NaCl, 1 mM DTT, 1% DMSO, and 0.005% w/v Triton X-100 in deionized water. […] Addition of 1 μL of 0.5% v/v TFA was used to stop the methylation reaction at defined time points; 1 μL of 6× concentrated MTase-Glo reagent was added to each well and incubated at room temperature. After 30 min, 6 μL of the prefiltered MTase-Glo detection reagent was added and incubated for a further 30 min at room temperature. Luminescence was measured using an Envision 2101 Multilabel plate reader, and product concentrations were calculated using an AdoHcy standard curve. Steady-state rates were obtained by plotting AdoHcy production over time and normalized to SET domain concentration. Experiments were performed in triplicate and expressed as the mean ± SD. Data were analyzed using nonlinear regression in GraphPad Prism v9.1.
Steady-state rates were measured in substrate-inhibitor matrix experiments. Dead-end inhibitor experiments were performed with the second substrate fixed at KM, while product inhibitor experiments fixed the second substrate at KM or 20× KM. Assays using 20× KM AdoMet used a cofactor adjusted to pH 7.5. […] Steady-state rates were globally fitted to competitive, uncompetitive, and noncompetitive inhibition (eqs 6, 7, and 8, respectively).
Competitive inhibition [drawing 6] 6 Uncompetitive inhibition [drawing 7] 7 Noncompetitive inhibition [drawing 8] 8 Mixed inhibition [drawing 9] 9 where ν is the initial rate, Vmax is the maximum velocity of the uninhibited reaction, [S] is the substrate concentration of the varied substrate, [I] is the inhibitor concentration, KM is the Michaelis–Menten constant, and Ki is the inhibition constant. To resolve any ambiguities in assigning inhibition type, the mixed inhibition model was used (eq 9), to derive the value of α, which is a measure of competitive or uncompetitive nature.

[2] = target: T2, His-SET (5382–5537) + ASH2L (380-496-ISGRGS-539-598) + RbBP5 peptide (Homo sapiens, UniProt O14686); assay: SPR binding assays (steady-state affinity); conditions: minimal complex; 1:1 interaction model
T2 construct: made in house; RbBP5 peptide synthetic, Chinese Peptide Company
T2 sequence (O14686 5382-5537): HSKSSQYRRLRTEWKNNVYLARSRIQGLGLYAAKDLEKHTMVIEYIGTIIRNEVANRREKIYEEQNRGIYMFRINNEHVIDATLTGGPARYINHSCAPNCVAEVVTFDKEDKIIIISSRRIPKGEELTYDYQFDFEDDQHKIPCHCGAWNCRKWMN
Procedure: Surface plasmon resonance experiments were performed using a T200 instrument (Cytiva) equipped with a research-grade NTA sensor S chip (Cytiva) at 20 °C. For immobilization, the instrument was primed with a buffer composed of 10 mM HEPES, pH 7.5, 150 mM NaCl, 0.5 mM TCEP, and 0.05% Tween 20. The NTA chip was conditioned with three 2 min injections of 50 mM NaOH/1 M NaCl and a 2 min injection of 250 mM EDTA. Protein and reference flow cells were then prepared by a 2 min injection of 1 mM NiCl2 and a 7 min injection of 0.2 M EDC/ 0.05 M NHS. Immediately, the protein (500 nM His-SET (5382–5537) + ASH2L (380-496-ISGRGS-539-598) + RbBP5 peptide in immobilization buffer) was injected over the measurement flow cell to the desired RU level, followed by deactivation with a 7 min injection of 1 M ethanolamine pH 8 of all flow cells. For binding measurements, the system was then primed in a running buffer consisting of 50 mM Tris pH 7.5, 150 mM NaCl, 1 mM TCEP, 1–2% DMSO, and 0.05% Tween 20. […] Data processing included solvent correction and blank subtraction. The steady-state data were analyzed using Biaevaluation/Insight Software 1.1 (GE Healthcare/Cytiva) using an implemented 1:1 interaction model.

[3] = target: T1, SET/WRAD2 complex; assay: Steady-state substrate specificity (peptide and nucleosome substrates), MTase-Glo; type: biochemical
Procedure: as §1
(§2) Steady-state rates were measured in substrate matrix experiments. Data were globally fitted to ternary Bi–Bi and Ping–Pong models to obtain kcat and KM parameters (eqs 1 and 2).
(§3) The ternary Bi–Bi model [drawing 1] 1 The Ping–Pong model [drawing 2] 2 where ν is the initial rate, Vmax is the maximum velocity, [A] is the concentration of the varied substrate, [B] the concentration of the fixed substrate, KM^A and KM^B are the Michaelis constants of the varied and fixed substrates, respectively, and Kd is the dissociation constant of the varied substrate.
Target sequence in this assay (Q15291 whole entry, the tested form may be a part): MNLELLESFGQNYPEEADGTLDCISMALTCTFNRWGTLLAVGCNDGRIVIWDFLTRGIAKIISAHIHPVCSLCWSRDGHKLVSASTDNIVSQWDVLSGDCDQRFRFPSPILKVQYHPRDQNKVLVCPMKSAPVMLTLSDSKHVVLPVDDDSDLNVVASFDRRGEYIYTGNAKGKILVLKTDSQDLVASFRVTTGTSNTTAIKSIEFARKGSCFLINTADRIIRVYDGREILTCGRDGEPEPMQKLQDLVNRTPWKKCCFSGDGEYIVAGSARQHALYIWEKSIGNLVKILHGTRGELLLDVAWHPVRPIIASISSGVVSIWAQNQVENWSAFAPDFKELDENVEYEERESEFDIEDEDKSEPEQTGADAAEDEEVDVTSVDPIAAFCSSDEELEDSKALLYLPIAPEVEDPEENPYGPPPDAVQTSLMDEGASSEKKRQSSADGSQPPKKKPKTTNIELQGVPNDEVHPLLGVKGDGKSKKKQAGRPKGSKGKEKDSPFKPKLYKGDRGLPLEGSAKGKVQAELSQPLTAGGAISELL
Target sequence in this assay (Q9UBL3 95-628, further chain): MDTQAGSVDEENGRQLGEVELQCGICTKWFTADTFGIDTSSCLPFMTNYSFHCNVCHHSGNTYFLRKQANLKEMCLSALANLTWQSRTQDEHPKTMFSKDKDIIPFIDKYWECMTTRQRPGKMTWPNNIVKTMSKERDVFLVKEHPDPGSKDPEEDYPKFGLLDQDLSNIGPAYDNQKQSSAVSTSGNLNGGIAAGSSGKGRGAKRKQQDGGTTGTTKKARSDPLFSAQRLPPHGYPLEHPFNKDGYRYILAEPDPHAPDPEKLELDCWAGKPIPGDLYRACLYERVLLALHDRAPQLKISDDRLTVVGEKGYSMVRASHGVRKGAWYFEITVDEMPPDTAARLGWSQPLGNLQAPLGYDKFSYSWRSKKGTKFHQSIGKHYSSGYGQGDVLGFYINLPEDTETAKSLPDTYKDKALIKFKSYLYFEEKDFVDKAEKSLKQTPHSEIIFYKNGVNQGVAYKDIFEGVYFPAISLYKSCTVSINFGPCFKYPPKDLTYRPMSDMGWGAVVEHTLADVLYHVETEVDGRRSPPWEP
Target sequence in this assay (Q9C005 whole entry, further chain, the tested form may be a part): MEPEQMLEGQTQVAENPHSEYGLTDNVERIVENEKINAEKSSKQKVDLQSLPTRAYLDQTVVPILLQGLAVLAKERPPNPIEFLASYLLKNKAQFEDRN
Target sequence in this assay (O14686 5361-5537): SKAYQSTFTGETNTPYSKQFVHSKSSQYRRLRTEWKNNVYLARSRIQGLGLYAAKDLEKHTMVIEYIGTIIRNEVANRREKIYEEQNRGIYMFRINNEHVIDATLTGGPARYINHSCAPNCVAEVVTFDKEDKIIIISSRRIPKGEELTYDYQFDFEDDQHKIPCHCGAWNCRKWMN

[4] = target: T3, SET/Ash2L/RbBP5 minimal complex (Homo sapiens, UniProt O14686); assay: Substrate matrix experiment with the minimal complex, MTase-Glo; type: biochemical; conditions: read-out: Kd^(AdoMet)
T3 construct: 6xHis + TEV site (N); made in house; RbBP5 peptide synthetic, Chinese Peptide Company
T3 sequence (O14686 5382-5537, one chain of several): as the sequence (O14686 5382-5537) above
Procedure: as §1
The ternary Bi–Bi model [drawing 1] 1 The Ping–Pong model [drawing 2] […]

[5] = target: T4, hKMT2D SET domain (Homo sapiens, UniProt O14686); assay: WRAD2 titration: MTase-Glo steady-state substrate matrix experiments; type: biochemical; conditions: eq 1, read-out: Kd^(AdoMet)
T4 construct: expressing amino acids 5308-5537 of the hKMT2D catalytic SET domain; 6xHis + TEV site (N, cleaved yes); made in house; host or cells: KMT2D Win-SET: Sf21 (baculovirus); H3 peptides bought from Chinese Peptide Company
T4 sequence (Q9UBL3 95-628): as the sequence (Q9UBL3 95-628, further chain) above
T4 sequence (Q9C005 whole entry, further chain, the tested form may be a part): as the sequence (Q9C005 whole entry, further chain, the tested form may be a part) above
T4 sequence (O14686 5361-5537): as the sequence (O14686 5361-5537) above
T4 sequence (Q15291 whole entry, further chain, the tested form may be a part): as the sequence (Q15291 whole entry, the tested form may be a part) above
Procedure: as §1, §2
as §3, with “substrate. […]” for “substrate.”

[6] = target: hKMT2D SET domain (Win-SET protein that lost the Win motif by proteolysis) (human) (UniProt O14686)
hKMT2D SET domain (Win-SET protein that lost the Win motif by proteolysis) (human), sequence (O14686 5362-5537): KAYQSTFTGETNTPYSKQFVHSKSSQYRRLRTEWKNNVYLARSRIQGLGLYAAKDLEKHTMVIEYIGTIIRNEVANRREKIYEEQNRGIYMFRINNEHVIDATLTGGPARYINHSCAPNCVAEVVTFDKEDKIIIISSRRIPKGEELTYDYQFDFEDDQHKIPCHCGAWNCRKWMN

[7] = target: hKMT2D SET domain (Win-SET protein that lost the Win motif by proteolysis) (human) (UniProt O14686); remark: listed apart in the source
[8] = test system: C[S+](CC[C@H](N)C(=O)[O-])C[C@H]1O[C@@H](n2cnc3c(N)ncnc32)[C@H](O)[C@@H]1O; assay: Steady-state substrate specificity (peptide and nucleosome substrates), MTase-Glo; type: biochemical, human; conditions: other: WRAD2, eq 1, pH 7.5
[9] = test system: C[S+](CC[C@H](N)C(=O)[O-])C[C@H]1O[C@@H](n2cnc3c(N)ncnc32)[C@H](O)[C@@H]1O; assay: purified protein, by the assay type; type: biochemical, human; conditions: pH 7.5
[10] = varied substrate AdoMet, fixed substrate at 20× KM
[11] = varied substrate AdoMet, fixed substrate at KM
[12] = varied substrate H3_1–21, fixed substrate at KM

Ash2L (absent small or homoeotic 2-like), full length, sequence (Q9UBL3 whole entry): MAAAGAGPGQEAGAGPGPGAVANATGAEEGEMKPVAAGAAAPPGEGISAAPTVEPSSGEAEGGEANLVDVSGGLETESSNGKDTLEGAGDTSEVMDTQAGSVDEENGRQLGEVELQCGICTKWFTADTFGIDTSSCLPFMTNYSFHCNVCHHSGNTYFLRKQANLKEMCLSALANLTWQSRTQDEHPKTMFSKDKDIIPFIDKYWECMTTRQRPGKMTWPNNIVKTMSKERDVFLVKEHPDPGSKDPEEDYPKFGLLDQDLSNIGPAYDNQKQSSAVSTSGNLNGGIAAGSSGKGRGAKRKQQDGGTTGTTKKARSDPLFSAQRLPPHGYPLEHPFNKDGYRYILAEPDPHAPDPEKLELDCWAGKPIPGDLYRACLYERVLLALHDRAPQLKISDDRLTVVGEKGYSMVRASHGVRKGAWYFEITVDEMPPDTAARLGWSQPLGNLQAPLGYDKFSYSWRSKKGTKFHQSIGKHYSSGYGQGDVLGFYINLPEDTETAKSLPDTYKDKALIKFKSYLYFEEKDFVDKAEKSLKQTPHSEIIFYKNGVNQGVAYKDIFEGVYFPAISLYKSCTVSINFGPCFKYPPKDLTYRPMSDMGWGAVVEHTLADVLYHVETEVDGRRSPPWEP
RbBP5 (retinoblastoma-binding protein), full length, sequence (Q15291 whole entry): as the sequence (Q15291 whole entry, the tested form may be a part) above

Compound: Nc1ncnc2c1ncn2[C@@H]1O[C@H](CSCC[C@H](N)C(=O)O)[C@@H](O)[C@H]1O [AdoHcy, S-adenosyl-L-homocysteine]
Ki [1, 10]: 2.29 ± 0.2 µM | inhibition pattern [1, 10]: C | α (mixed inhibition model) [1, 10]: 6.8 | Ki [1, 11]: 4.95 ± 0.62 µM | inhibition pattern [1, 11]: C | α (mixed inhibition model) [1, 11]: >1000 | inhibition pattern ([1]; varied substrate H3_1–21, fixed substrate at 20× KM): no inhibition | Ki [1, 12]: 5.38 ± 0.41 µM | inhibition pattern [1, 12]: NC | α (mixed inhibition model) [1, 12]: 0.56

Kd [2]: 9 ± 2 µM | Kd ([3]; eq 1, substrate Me1H3_1–21, read-out: Kd^(AdoMet)): 3760 ± 490 nM | Kd ([3]; eq 1, substrate Me2H3_1–21, read-out: Kd^(AdoMet)): 40 nM | Kd [4]: 7.63 ± 0.46 µM | Kd ([5]; [WRAD2] 0 nM, [SET] 125 nM): 5930 ± 1200 nM | Kd ([5]; [WRAD2] 0.125 nM, [SET] 125 nM): 4990 ± 1500 nM | Kd ([5]; [WRAD2] 0.5 nM, [SET] 125 nM): 2930 ± 600 nM | Kd ([5]; [WRAD2] 1 nM, [SET] 125 nM): 1610 ± 580 nM | Kd ([5]; [WRAD2] 2 nM, [SET] 125 nM): 610 ± 360 nM | Kd ([5]; [WRAD2] 4 nM, [SET] 125 nM): 650 ± 380 nM | Kd ([5]; [WRAD2] 6.25 nM, [SET] 30 nM): 1540 ± 360 nM | Kd ([5]; [WRAD2] 10 nM, [SET] 30 nM): 1420 ± 560 nM | Kd ([5]; [WRAD2] 15 nM, [SET] 30 nM): 990 ± 300 nM | Kd ([5]; [WRAD2] 25 nM, [SET] 30 nM, substrate H3_1–21): 850 ± 480 nM | Kd ([5]; [WRAD2] 125 nM, [SET] 30 nM): 540 ± 310 nM | Kd ([5]; [WRAD2] […], [SET] 125 nM): 5020 ± 680 nM
Compound: C[S+](CC[C@H](N)C(=O)[O-])C[C@H]1O[C@@H](n2cnc3c(N)ncnc32)[C@H](O)[C@@H]1O (stereo partly drawn) [AdoMet, S-adenosyl-L-methionine]

Compound: Nc1ncnc2c1ncn2[C@@H]1O[C@H](C[C@@H](N)CC[C@H](N)C(=O)O)[C@@H](O)[C@H]1O [sinefungin]
Ki [1, 11]: 11 ± 0.46 µM | inhibition pattern [1, 11]: C | α (mixed inhibition model) [1, 11]: 21.1 | Ki [1, 12]: 10.3 ± 0.79 µM | inhibition pattern [1, 12]: UC | α (mixed inhibition model) [1, 12]: 0.16

H3 1-21 affinity (KM) of the SET domain with Ash2L alone, 1:1, 5 μM AdoMet [6]: 2 fold | Kd assigned to Ash2L from the WRAD2 titration of H3 1-21 affinity (steady-state kinetics) [7]: 4 nM
Compound: Ash2L (absent small or homoeotic 2-like), full length (from UniProt Q9UBL3 1-628) (natural protein)

Kd assigned to RbBP5 from the WRAD2 titration of kcat (steady-state kinetics) [7]: 12 nM
Compound: RbBP5 (retinoblastoma-binding protein), full length (from UniProt Q15291 1-538) (natural protein)

Compound: SET/WRAD2 complex (Homo sapiens)
Km ([8]; substrate Me1H3_1–21): 5.22 ± 0.32 µM | Km ([8]; substrate Me2H3_1–21): 3.48 ± 0.36 µM

Compound: hKMT2D SET domain (Homo sapiens)
Km ([9]; other: 25 nM WRAD2, Ping–Pong model eq 2, substrate H3_1–21): 5.10 ± 0.32 µM | Km ([9]; other: [WRAD2] 0 nM, [SET] 125 nM, eq 1): 5.38 ± 1.0 µM | Km ([9]; other: [WRAD2] 0.125 nM, [SET] 125 nM, eq 1): 5.48 ± 1.25 µM | Km ([9]; other: [WRAD2] 0.5 nM, [SET] 125 nM, eq 1): 3.61 ± 0.51 µM | Km ([9]; other: [WRAD2] 1 nM, [SET] 125 nM, eq 1): 4.55 ± 0.62 µM | Km ([9]; other: [WRAD2] 2 nM, [SET] 125 nM, eq 1): 4.18 ± 0.50 µM | Km ([9]; other: [WRAD2] 4 nM, [SET] 125 nM, eq 1): 2.36 ± 0.28 µM | Km ([9]; other: [WRAD2] 6.25 nM, [SET] 30 nM, eq 1): 3.07 ± 0.16 µM | Km ([9]; other: [WRAD2] 10 nM, [SET] 30 nM, eq 1): 3.89 ± 0.33 µM | Km ([9]; other: [WRAD2] 15 nM, [SET] 30 nM, eq 1): 4.77 ± 0.22 µM | Km ([9]; other: [WRAD2] 25 nM, [SET] 30 nM, eq 1, substrate H3_1–21): 4.65 ± 0.34 µM | Km ([9]; other: [WRAD2] 125 nM, [SET] 30 nM, eq 1): 4.71 ± 0.25 µM | Km ([9]; other: [WRAD2] […], [SET] 125 nM, eq 1): 6.28 ± 0.65 µM
